Structures can show the parent of a compound that is named as a salt.
Key:
chick embryos = experiment: Early embryonic chick culture: heart development (MF20) after HCy, Li or Wnt3A exposure, FA/inositol rescue; format: in vivo, chick (Gallus gallus); settings: for % Normal Hearts / Abnormal (number of embryos) / Normal (number of embryos): HCy 50 μM, FA 10 μM
Description: Pathogen-free White Leghorn chick (Gallus gallus; Charles River, Mass.) and quail (Coturnix coturnix japonica; Strickland Farms, Ga.) embryos were used to analyze the effects of HCy on early embryogenesis. The early processes of heart development are well conserved among vertebrates and the avian model allows for more precise timing of exposure in early embryos. The incubation methodology using agarose-albumin has been described previously (Darnell and Schoenwolf, 2000). Briefly, the experimental paradigm involved exposing specific early stages of chick embryos, at HH stages 4 to 7 (Hamburger and Hamilton, 1951), to different concentrations of HCy (L-homocysteine thiolactone hydrochloride, Sigma) made up in physiological saline. Final concentrations of HCy included 30 μM, 50 μM, 75 μM and 100 μM. The minimal teratogenic dose was determined empirically to be 50 μM. This fit within the concentration range of 30 μM to 300 μM used by others that induced heart defects at later stages of development (Boot et al., 2004). Control embryos were incubated using the vehicle, physiological saline, in the agarose-albumin medium. Control and experimental cultures were incubated on the agarose-albumin plates for either 8 or 24 hours.
Carrier-free, recombinant mouse Wnt3A was purchased from R&D Systems (Minneapolis, Minn.). Wnt3A concentrations were empirically tested to find those that would induce cardiac defects but maintain embryonic viability. Wnt3A was tested at concentrations of 2 ng, 10 ng, 20 ng, 50 ng and 100 ng per ml. Concentrations of 2 ng/ml and 10 ng/ml were both effective in inducing cardiac defects. Both Wnt3A concentrations were used in the FA rescue experiments, as described. For the FA rescue experiments, folate (folic acid, Sigma-Aldrich) was added at a concentration of 2 μg, 5 μg or 10 μg per ml. […] For the experiments using inositol (myo-inositol, Sigma) supplementation, a concentration of 50 mg/ml was used.
The main embryonic defects related to the timing of embryonic exposure; the regions that were primarily affected related to an anterior-to posterior (AP) wave of development along this embryonic axis. The exposure effects ranged from early effects (e.g. no cardiac tissue, heart development occurring anterior to neural tissue, cardiabifida) to later effects, such as wide hearts and left looping (Table 1). The cardiac phenotypes observed with early HCy exposure were similar, although not identical, to those obtained from previous studies of Li exposure on avian heart development (Manisastry et al., 2006). The Wnt/β-catenin modulated genes Hex and Isl1 in the chick embryo also were similarly repressed with HCy, as with Li in the chick cardiogenic region. […] Investigation of regulatory gene activity in chick embryos indicates Li, HCy and Wnt3A suppress Wnt-modulated genes Hex and Islet-1 in the heart fields.
To define the effective dose of Wnt3A needed to induce cardiac dysmorphogenesis, Wnt3A was tested at concentrations of 2 ng, 10 ng, 20 ng, 50 ng, and 100 ng per ml. The minimal effective doses of Wnt3A that induced cardiac and neural anomalies were 2 ng/ml and 10 ng/ml, respectively. Using these concentrations, the inventors analyzed whether FA supplementation of media at 10^3-fold higher concentrations, that is 2 μg/ml or 10 μg/ml, would provide protection against the augmentation of canonical Wnt3A signaling.

[1] = test system: Hex and Islet-1 (Isl1) gene expression; experiment: In situ hybridization of Hex and Isl1 in avian heart fields after Li, HCy or Wnt3A with or without FA; format: in vivo, chick
Description: In situ hybridizations on control and experimentally manipulated chick embryos were carried out using digoxigenin-labeled riboprobes with alkaline phosphatase detection (Linask et al., 2001). Images of whole-mounted chick embryos were taken with a Nikon DS-L2 camera unit. Probes for chick Hex were provided by Parker Antin, University of Arizona and probes for chick Islet-1 (Isl1) were provided by Thomas Jessell, Columbia University, NY.
Chick embryos (HH stages 3+/4) were incubated on agarose albumin supplemented with HCy (50 μM). Instead of giving a single injection in ovo, embryos were exposed to HCy for 8 hours in order to define the effect on early cardiac gene expression. Another group of embryos were exposed to HCy for 24 hours at which time the effects on gene expression were determined. To analyze the effects during the looping stages, incubation was stopped after between 22 and 24 hours. After the 8-hour incubation, Li and HCy suppressed Hex and Isl1 expression in the cardiogenic crescent (FIG. 5).
The inventors next analyzed whether FA rescues the downregulation of Hex and Isl1. Chick embryos were exposed to Li, HCy or Wnt3A, as above, with and without 10 μg/ml of FA; the experiments were terminated after either an 8-hour or 24-hour exposure period, at which time in situ hybridizations for gene expression were performed. After 8 hours of exposure, Li, HCy and Wnt3A all suppressed Hex (FIGS. 9D, G, J) and Isl1 (FIGS. 10D, G, J) compared with the control embryonic expression patterns (FIG. 9A; FIG. 10A). […] Thus, FA supplementation suppressed the potentiation of the inhibitory Wnt signaling, allowing for normal induction of Hex and Isl1 gene expression.

[2] = test system: Acadm and Acadl gene expression; experiment: RT-PCR of Acadm and Acadl in E7.5 embryos and E15.5 hearts; format: in vivo, mouse; settings: for Acadm expression: E15.5 hearts, versus control hearts
Description: The gene expression data were validated by RT-PCR in mouse embryos at both E 7.5 (a half day after exposure) and at E15.5 and by in situ hybridization for tissue localization analyses. The inventors chose E 7.5 to determine early gestational changes in gene expression and to define whether these expression changes were maintained during pregnancy to E 15.5. Digoxigenin labeled probes and alkaline phosphatase secondary antibody detection for in situ hybridization were used (Roche, Inc., Indianapolis, Ind.).

[3] = test system: neutral lipid droplets in heart and placenta; experiment: Oil Red O staining of neutral lipid droplets in E15.5 heart and placenta; format: in vivo, mouse; settings: for ORO neutral lipid localization in the placenta: labyrinth and maternal decidua
Description: Oil Red O (ORO), a fat soluble dye, was used to detect neutral lipids (triglycerides, diacylglycerols, and cholesterol esters) in cryosectioned E15.5 cardiac and placental tissues. The staining methodology was followed as published. This method estimates tissue lipid content and localization (Mehlem et al., 2013). Lipid droplets stain red and nuclei blue. Polar lipids (phospholipids, sphingolipids and ceramides) are not stained (Fowler and Greenspan, 1985).

[4] = HH stage 3 +/4, Li 50 μM, inositol 280 mM
[5] = 50 μM HCy, early embryonic chick model
[6] = White Leghorn, chick, in vivo, 50 μM

For `Nc1nc2ncc(CNc3ccc(C(=O)N[C@@H](CCC(=O)O)C(=O)O)cc3)nc2c(=O)[nH]1` [FA, folic acid], the “% Normal Hearts” value (chick embryos; [4]) was 55%, the “Abnormal (number of embryos)” value (chick embryos; [4]) was 5 and the “Normal (number of embryos)” value (chick embryos; [4]) was 6. For the same molecule, the “% Normal Hearts” value (chick embryos; HH stage 3 +/4, Li 50 μM, inositol 280 mM, listed as FA only) was 55%, the “heart development (MF20)” value (chick embryos; in vivo) was “normal heart development” and the “Hex and Isl1 gene expression with FA supplementation” value ([1]; embryos exposed to Li, HCy or Wnt3A, FA 10 μg/ml, 8 hours) was “normalized gene expression patterns”. For the same molecule, the “heart formation and Hex/Isl1 expression with FA supplementation” value ([1]; embryos exposed to Li, HCy or Wnt3A, FA 10 μg/ml, 24 hours) was “normal beating hearts had formed”, the Acadm expression [2] was “returned the expression close to control levels” and the “ORO neutral lipid localization in the placenta” value [3] was “more normal organization of labyrinth”.
With `N[C@H]1CCSC1=O` [HCy, L-homocysteine thiolactone hydrochloride] the “Dead, Frequency” value (chick embryos; [5]) was 6, the “Dead, Percent” value (chick embryos; [5]) was 5.6% and the “Abnormal (number of embryos)” value (chick embryos; [4]) was 100. For the same molecule, the “Normal (number of embryos)” value (chick embryos; [4]) was 28, the “% Normal Hearts” value (chick embryos; HH stage 3 +/4, Li 50 μM, inositol 280 mM, hydrochloride) was 22% and the “Abnormal (number of embryos)” value (chick embryos; HH stage 5) was 50. The “Normal (number of embryos)” value (chick embryos; HH stage 5) was 24, the “% Normal Hearts” value (chick embryos; HH stage 5, hydrochloride) was 32% and the minimal teratogenic dose (chick embryos; White Leghorn, chick, in vivo) was 50 µM. The “Cardiabificla, Frequency” value (chick embryos; [6]) was 11, the “Cardiabificla, Percent” value (chick embryos; [6]) was 10.2% and the “Delayed development, Frequency” value (chick embryos; [6]) was 2. The “Delayed development, Percent” value (chick embryos; [6]) was 1.9%, the “Heart above head, Frequency” value (chick embryos; [6]) was 18 and the “Heart above head, Percent” value (chick embryos; [6]) was 16.7%. For the same molecule, the “Heart close midline, Frequency” value (chick embryos; [6]) was 15, the “Heart close midline, Percent” value (chick embryos; [6]) was 13.9% and the “Left looping, Frequency” value (chick embryos; [6]) was 11. For the same molecule, the “Left looping, Percent” value (chick embryos; [6]) was 10.2%, the “Tubular heart, Frequency” value (chick embryos; [6]) was 3 and the “Tubular heart, Percent” value (chick embryos; [6]) was 2.8%. For the same molecule, the “Very abnormal (or no hearts), Frequency” value (chick embryos; [6]) was 18, the “Very abnormal (or no hearts), Percent” value (chick embryos; [6]) was 16.7% and the “Wide heart, Frequency” value (chick embryos; [6]) was 24. The “Wide heart, Percent” value (chick embryos; [6]) was 22.2%, the “development after exposure at HH stages 6 and 7” value (chick embryos; in vivo) was “normal development” and the “Hex and Isl1 expression in the cardiogenic crescent” value ([1]; 8 hours of exposure, HH stages 3+/4) was “suppressed”. For the same molecule, the Isl1 gene expression ([1]; by 24 hours of Li or HCy exposure) was “recovered”, the Acadm/Acadl gene expression ([2]; E7.5, versus control embryos, FA from morning after conception) was “slightly down-regulated” and the Acadm expression [2] was “upregulation”. The “ORO staining of neutral lipids in the heart” value [3] was “did not alter ORO staining in the trabeculae” and the “ORO neutral lipid localization in the placenta” value [3] was “patch-like neutral lipid localization”.

From patent US9308210B2, “Method for modulating canonical Wnt pathway using folate and inositol” (University of South Florida, priority 2009, dated 2016)
